Where two headings read alike, the source gives them in different places.
Experiments:
[1] = tested on: ADP induced platelet aggregation; experiment: In vivo platelet aggregation measurement, filter occlusion technique (Broersma et al.); design: species or system beagle dogs; conditions: 20 mg/kg, intravenous, after 4 hours
Procedure: Measurement of platelet aggregation in vivo was carried out using the technique described by Broersma, et al., Thomb. diath. Haemorrhag. 29, 201 (1973). Such determinations are based upon the measurement of the blood pressure proximal to a filter with 53 micron openings through which arterial blood flows. Platelet aggregation partially obstructs the filter with time causing a change in the pressure which is proportional to the degree of platelet aggregation (thrombosis).
Fasted male beagle dogs were anesthetized with sodium pentobarbital (35 mg/kg), heparinized (16.5 μ/kg, i.v.) and tested for platelet function using aggregometry. Compounds were administered intravenously in solutions having the pH adjusted to 7.4. The solution was infused at a rate of 15.3 ml/min to total volume of 5 ml/kg of body weight. Thrombus formation was observed using the filter occlusion technique outlined above. Platelet count, hematocrit, blood pressure, and heart rate were also measured.

[2] = tested on: ADP-induced platelet aggregation; experiment: In vitro inhibition of ADP-induced platelet aggregation (Born technique, optical density, platelet rich plasma); format: cell-based, rat
Procedure: Rat blood was collected into 3.0 percent trisodium citrate solution (1:10) by cardiac puncture undeer methoxyflurane anesthesia. The blood was centrifuged at 120 g for 10 minutes at room temperature and the supernatant platelet rich plasma was removed and diluted with lactated Ringer's solution containing the […] aggregation inhibiting agent (1.0:1.5). Samples of 1.0 ml were pipetted into plastic test tubes and incubated for three minutes. Plastic equipment was used for all procedures. The concentration of the thiadiazole compound in micromoles inhibiting ADP aggregation by 50 percent (IC50) was determined using changes in optical density as a indicium of platelet aggregation.

[3] = tested on: tobacco black shank; experiment: Control of tobacco black shank, soil drench; format: in vivo
[4] = tested on: ADP-induced emboli / platelet aggregation; experiment: Protection of mice from ADP challenge (inclined screen test); format: in vivo; conditions: 60 mg/kg i.p.; ten mice; ADP i.v. one hour after compound
Procedure: Emboli formed in the vascular system of mice in response to the administration of ADP cause a stroke-like response that prevents mice from staying on an inclined screen. To illustrate the platelet aggregation inhibition effect of the 1,3,4-thiadiazoles, ten mice were dosed by intraperitoneal injection with 60 mgs per kilogram of body weight of the compound 2,5-bis(2-(diethylamino)ethylthio)-1,3,4-thiadiazole di-p-toluenesulfonic acid salt (Example 3). One hour after compound administration, the mice were challenged with ADP (0.05 M mole/kg) by injection via the tail vein and placed on an inclined screen. Unprotected control mice not injected with thiadiazole were unable to maintain their position on the screen when given a similar injection of ADP.

## C1CN(CCSc2nnc(SCCN3CCOCC3)s2)CCO1 [2,5-bis-(2-(4-morpholinyl)ethylthio)-1,3,4-thiadiazole]
[1]
  reduction of ADP induced platelet aggregation in the dog: 36%

## CC(=O)Oc1ccccc1C(=O)O [Aspirin, reference compound]
[2]; Rattus norvegicus, Platelet, read-out: IC50 ADPmax
  IC50: 12.8 µM
[2]; Rattus norvegicus, Platelet, read-out: IC50 ADPslope
  IC50: 18.1 µM

## C(CSc1nnc(SCCCN2CCOCC2)s1)CN1CCOCC1 [Example 1, 2,5-bis(3-(4-morpholinyl)-propylthio)-1,3,4-thiadiazole]
[2]; compared with aspirin, conditions of this test
  activity relative to aspirin in the inhibition of ADP induced platelet aggregation: about twice as active as aspirin
[2]; inhibits maximum ADP-induced platelet aggregation by 50%, rat platelet rich plasma, read-out: IC50 ADPmax
  IC50: 6.28 µM
[2]; inhibits the speed of the platelet aggregation by 50%, rat platelet rich plasma, read-out: IC50 ADPslope
  IC50: 9.41 µM

## CCN(CC)CCSc1nnc(N)s1 [Example 2, 2-amino-5-(2-(diethylamino)ethylthio)-1,3,4-thiadiazole]
[3]
  control and killing of tobacco black shank (in words): effective in the control and killing of tobacco black shank
[3]; solution of 25 ppm
  control of the disease (tobacco black shank): 100%

## CCN(CC)CCSc1nnc(SCCN(CC)CC)s1.Cc1ccc(S(=O)(=O)O)cc1.Cc1ccc(S(=O)(=O)O)cc1 [Example 3, 2,5-bis(2-(diethylamino)ethylthio)-1,3,4-thiadiazole di-p-toluenesulfonic acid salt]
[4]
  mice protected from ADP challenge and able to remain on the screen: 40%
